In ChEMBL document CHEMBL1201862, “PubChem BioAssay data set” (2004):
Activity calls are given as the source filed them.

Legend:
[1] = target: Guanyl-specific ribonuclease T1 (Aspergillus oryzae (strain ATCC 42149 / RIB 40), UniProt P00651); assay: inhibition of ribonuclease T1 activity – biochemical, fluorescence polarization, 1536-well, counter-screen for TPT1 inhibitor project, dose response (AID 2167)
[2] = target: Likely tRNA 2'-phosphotransferase (Candida albicans (strain SC5314 / ATCC MYA-2876) (Yeast), UniProt Q5A7N4); assay: inhibition of Candida TPT1 enzyme activity – biochemical, fluorescence polarization, dose response (AID 2160)
[3] = blockers of SFLLRN-triggered platelet ATP secretion – cell-based, human platelets, luminescence, dry powder, dose response (AID 493100); assay type: functional
[4] = NIH-3T3 fibroblast cytotoxicity, dose response, cytotoxicity control, cell-based, fluorescence, Alamar Blue, secondary assay (AID 2327); assay type: functional;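 note: NIH-3T3 mouse fibroblasts cultured with fluconazole at 8 µg/mL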
[5] = target: Transitional endoplasmic reticulum ATPase (Homo sapiens, UniProt P55072, C522A); assay: C522A mutant p97 ATPase inhibitors, dose response, counter-screen for p97 inhibitor project, biochemical, luminescence (AID 1544)
[6] = fluconazole-exposed Candida albicans growth modulators – fluorescence, retest, confirmation (AID 2467); assay type: functional, cell-based
[7] = target: Transitional endoplasmic reticulum ATPase (Homo sapiens, UniProt P55072); assay: p97 ATPase inhibitors, dose response, biochemical (AID 1534)
[8] = target: Trypsin (Sus scrofa, UniProt P00761); assay: trypsin protease activity blockade – biochemical, quenched peptide fluorescence, cherry-pick, selectivity assay for Rce1 protease inhibitor project, dose response (AID 488789)
[9] = target: T1, Bcl-2-related protein A1 (Mus musculus, UniProt Q07440); assay type: functional;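 note: confirmatory dose–response counterscreen on Bfl-1, used to check hits from a UBC13 polyubiquitin inhibitor campaign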
T1 sequence (Q07440 whole entry): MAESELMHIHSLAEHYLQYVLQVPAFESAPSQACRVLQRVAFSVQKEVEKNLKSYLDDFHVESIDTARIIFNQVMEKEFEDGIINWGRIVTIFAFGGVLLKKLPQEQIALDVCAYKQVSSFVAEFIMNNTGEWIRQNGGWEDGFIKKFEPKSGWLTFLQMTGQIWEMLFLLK

[10] = target: T2, Ubiquitin-conjugating enzyme E2 N (Homo sapiens, UniProt P61088); assay type: functional
T2 sequence (P61088 whole entry): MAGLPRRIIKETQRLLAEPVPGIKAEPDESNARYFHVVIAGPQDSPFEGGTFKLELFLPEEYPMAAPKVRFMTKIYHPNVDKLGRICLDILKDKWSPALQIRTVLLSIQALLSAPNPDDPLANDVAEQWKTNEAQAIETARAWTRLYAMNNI

[11] = target: T3, CAAX prenyl protease 2 (Saccharomyces cerevisiae S288c, UniProt Q03530); assay type: biochemical
T3 sequence (Q03530 whole entry): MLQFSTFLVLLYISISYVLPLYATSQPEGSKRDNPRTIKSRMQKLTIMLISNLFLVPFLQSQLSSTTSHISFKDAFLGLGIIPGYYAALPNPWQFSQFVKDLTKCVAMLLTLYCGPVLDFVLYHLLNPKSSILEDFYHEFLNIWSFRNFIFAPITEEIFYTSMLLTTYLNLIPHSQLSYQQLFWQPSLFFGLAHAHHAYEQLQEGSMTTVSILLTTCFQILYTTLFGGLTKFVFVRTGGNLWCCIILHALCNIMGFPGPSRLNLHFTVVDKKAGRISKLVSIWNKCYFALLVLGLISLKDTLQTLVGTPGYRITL

[12] = target: T2, Ubiquitin-conjugating enzyme E2 N; assay type: functional; remark: listed apart in the source
[13] = target: T4, Replicative DNA helicase DnaB (Mycobacterium tuberculosis, UniProt P9WMR3); assay: DnaB intein splicing inhibitors, dose response, biochemical, cell-free fluorescence (AID 449749); assay type: functional
T4 sequence (P9WMR3 whole entry): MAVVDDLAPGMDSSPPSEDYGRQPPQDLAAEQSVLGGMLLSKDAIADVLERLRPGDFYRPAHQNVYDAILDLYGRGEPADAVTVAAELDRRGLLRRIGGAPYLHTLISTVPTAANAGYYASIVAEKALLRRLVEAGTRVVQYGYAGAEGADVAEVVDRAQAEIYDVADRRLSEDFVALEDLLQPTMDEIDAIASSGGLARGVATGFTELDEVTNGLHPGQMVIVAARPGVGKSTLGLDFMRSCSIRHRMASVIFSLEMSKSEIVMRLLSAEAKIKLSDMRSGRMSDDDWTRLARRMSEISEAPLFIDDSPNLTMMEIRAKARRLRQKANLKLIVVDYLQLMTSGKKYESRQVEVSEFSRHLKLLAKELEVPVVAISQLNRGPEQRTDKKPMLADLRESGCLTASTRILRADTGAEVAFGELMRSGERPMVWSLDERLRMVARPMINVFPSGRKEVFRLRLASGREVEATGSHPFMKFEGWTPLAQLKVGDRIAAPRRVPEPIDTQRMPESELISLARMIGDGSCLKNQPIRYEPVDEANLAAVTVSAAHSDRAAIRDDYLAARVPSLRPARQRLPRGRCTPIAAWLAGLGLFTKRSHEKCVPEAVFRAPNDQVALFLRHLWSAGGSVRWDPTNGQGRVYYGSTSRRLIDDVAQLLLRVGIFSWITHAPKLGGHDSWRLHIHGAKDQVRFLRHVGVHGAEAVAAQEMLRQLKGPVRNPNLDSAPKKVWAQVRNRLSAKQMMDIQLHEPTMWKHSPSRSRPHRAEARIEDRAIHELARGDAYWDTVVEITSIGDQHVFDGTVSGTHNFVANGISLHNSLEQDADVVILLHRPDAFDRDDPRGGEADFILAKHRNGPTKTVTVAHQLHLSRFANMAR

[14] = target: T5, Protein RecA (Mycobacterium tuberculosis, UniProt P9WHJ3); assay: Fluorescence Cell-Free Homogeneous Dose Retest to Identify Inhibitors of RecA-Intein Splicing Activity. [Related pubchem assays (depositor defined):AID2097, AID2223, AID489010, AID492950]; assay type: functional
T5 sequence (P9WHJ3 whole entry): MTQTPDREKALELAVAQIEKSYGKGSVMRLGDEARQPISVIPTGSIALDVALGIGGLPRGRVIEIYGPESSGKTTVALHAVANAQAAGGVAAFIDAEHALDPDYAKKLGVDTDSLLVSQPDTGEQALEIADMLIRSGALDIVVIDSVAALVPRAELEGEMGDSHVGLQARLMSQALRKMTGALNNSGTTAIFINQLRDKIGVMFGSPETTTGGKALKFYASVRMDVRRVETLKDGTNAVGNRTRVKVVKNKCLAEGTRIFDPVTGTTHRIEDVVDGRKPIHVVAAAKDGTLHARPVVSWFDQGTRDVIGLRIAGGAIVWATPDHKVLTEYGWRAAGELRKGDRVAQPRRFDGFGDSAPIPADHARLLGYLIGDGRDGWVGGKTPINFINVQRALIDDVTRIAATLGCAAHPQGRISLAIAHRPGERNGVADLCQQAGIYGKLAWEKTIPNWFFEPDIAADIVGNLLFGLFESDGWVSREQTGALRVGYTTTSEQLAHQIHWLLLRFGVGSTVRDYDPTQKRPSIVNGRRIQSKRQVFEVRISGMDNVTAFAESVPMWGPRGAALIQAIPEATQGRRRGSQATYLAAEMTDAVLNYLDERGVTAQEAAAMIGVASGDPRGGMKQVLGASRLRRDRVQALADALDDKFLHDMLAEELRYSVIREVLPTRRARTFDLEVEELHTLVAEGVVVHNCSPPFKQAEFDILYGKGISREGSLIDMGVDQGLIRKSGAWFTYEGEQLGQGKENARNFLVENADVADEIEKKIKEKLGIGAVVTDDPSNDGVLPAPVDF

[15] = tested on: INS1; assay: INS-1E survival protection against cytokine death – cell-based, luminescence, retest, dose response (AID 449756); assay type: functional; settings: Rattus norvegicus;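 note: cell death triggered by IL-1 beta plus TNF-alpha plus IFN-gamma mixture; protective hits raise ATP signal compared with cytokine alone wells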
[16] = target: T6, CAAX prenyl protease 2 (Homo sapiens, UniProt Q9Y256); assay: inhibition of Ras-converting CAAX protease Rce1 – biochemical, yeast membranes, quenched-peptide fluorescence, cherry-pick, dose response (AID 588849)
T6 sequence (Q9Y256 whole entry): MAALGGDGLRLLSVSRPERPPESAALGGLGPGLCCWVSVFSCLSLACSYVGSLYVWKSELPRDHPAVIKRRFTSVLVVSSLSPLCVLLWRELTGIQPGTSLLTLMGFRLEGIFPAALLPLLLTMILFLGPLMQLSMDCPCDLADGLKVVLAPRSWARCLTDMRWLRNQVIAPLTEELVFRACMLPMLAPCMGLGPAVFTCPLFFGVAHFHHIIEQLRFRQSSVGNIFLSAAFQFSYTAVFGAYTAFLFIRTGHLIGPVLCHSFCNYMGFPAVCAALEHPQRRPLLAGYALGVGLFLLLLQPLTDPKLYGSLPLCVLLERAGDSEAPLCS

[17] = target: Bcl-2-like protein 10 (Homo sapiens, UniProt Q9HD36); assay: Bcl-B/TR3 peptide binding disruption – biochemical, fluorescence polarization, FITC-TR3 peptide, selectivity assay for Bfl-1 inhibitor project, primary screen (AID 748);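 note: fluorescence polarization from a fluorescein-labelled TR3 peptide binding purified Bcl-B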
[18] = target: T7, Heat shock factor protein 1 (Mus musculus, UniProt P38532); assay: decrease of HSF1-responsive luciferase luminescence – cell-based, NIH3T3, dose retest, confirmation (AID 2382); assay type: functional;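 note: NIH3T3 fibroblasts with HSF1-driven luciferase reporter stressed by proteasome inhibitor MG132; luminescence from HSF1-driven luciferase expression after 8 hours of MG132 stress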
T7 sequence (P38532 whole entry): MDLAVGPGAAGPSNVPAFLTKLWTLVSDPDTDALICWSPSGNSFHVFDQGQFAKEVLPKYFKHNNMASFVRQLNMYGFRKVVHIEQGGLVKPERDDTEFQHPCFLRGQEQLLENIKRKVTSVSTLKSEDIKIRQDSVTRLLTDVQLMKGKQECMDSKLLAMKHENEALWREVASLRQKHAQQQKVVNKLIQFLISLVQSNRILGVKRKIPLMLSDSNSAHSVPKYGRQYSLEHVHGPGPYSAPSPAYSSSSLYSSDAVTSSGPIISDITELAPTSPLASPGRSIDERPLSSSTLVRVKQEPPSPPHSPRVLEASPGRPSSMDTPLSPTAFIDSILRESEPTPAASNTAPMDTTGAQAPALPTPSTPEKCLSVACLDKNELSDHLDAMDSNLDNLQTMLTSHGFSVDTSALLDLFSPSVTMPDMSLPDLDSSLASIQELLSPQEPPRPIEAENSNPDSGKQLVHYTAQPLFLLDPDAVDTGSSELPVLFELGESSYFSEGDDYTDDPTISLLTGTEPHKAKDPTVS

[19] = target: Lysosomal acid glucosylceramidase (Homo sapiens, UniProt P04062); assay: Dose response cell-based high throughput screening assay to identify enhancers of beta-glucosidase activity. [Related pubchem assays: 784 ]; assay type: functional
[20] = target: Cyclin-dependent kinase 5/CDK5 activator 1 (Homo sapiens, UniProt Q00535); assay: blockade of human CDK5 activity – biochemical, cherry-picked samples, set 2, dose response (AID 504545)
[21] = viability of uninfected HEp-2 cells – cell-based, HTS, cytotoxicity control for RSV inhibitor project, dose response (AID 2410); assay type: functional; settings: human respiratory syncytial virus
[22] = target: G-protein coupled receptor 35 (Homo sapiens, UniProt Q9HC97); assay: inhibition of zaprinast-stimulated GPR35 beta-arrestin translocation – imaging, U2OS, beta-arrestin-GFP, zaprinast agonist, primary screen (AID 2058); assay type: functional;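 note: antagonist potency meaning inhibition of agonist-induced arrestin redistribution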
[23] = tested on: Streptococcus sp. 'group A'; assay: Streptococcus pyogenes SK(-)GAS viability under kanamycin – luminescence, BacTiterGlo, confirmation, counter-screen for streptokinase expression inhibitor project, dose response (AID 1900); assay type: functional, organism-based
[24] = target: T8, Streptokinase A (Streptococcus pyogenes serotype M1, UniProt P10520); assay: viability-normalized secreted streptokinase activity reduction – plasminogen activation absorbance, OD405, dose response (AID 1914); assay type: functional, Streptococcus pyogenes M1 GAS;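 note: secreted streptokinase activity via plasminogen activation per viability signal from cell pellet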
T8 sequence (P10520 whole entry): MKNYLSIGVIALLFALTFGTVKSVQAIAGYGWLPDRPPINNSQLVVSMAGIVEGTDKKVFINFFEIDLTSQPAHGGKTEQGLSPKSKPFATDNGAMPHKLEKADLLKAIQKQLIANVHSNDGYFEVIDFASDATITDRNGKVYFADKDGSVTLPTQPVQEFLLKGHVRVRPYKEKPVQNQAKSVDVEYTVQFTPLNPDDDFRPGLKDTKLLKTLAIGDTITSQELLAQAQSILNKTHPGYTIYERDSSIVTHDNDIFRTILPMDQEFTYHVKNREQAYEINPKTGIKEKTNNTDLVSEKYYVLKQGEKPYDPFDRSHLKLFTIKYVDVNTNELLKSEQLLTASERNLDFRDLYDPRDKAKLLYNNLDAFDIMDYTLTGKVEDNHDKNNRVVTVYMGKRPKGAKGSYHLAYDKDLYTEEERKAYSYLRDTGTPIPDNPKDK

[25] = tested on: Streptococcus; assay: GAS UMAA2166 growth inhibition – luminescence, BacTiterGlo, counter-screen for streptokinase expression inhibitor project, dose response (AID 1915); assay type: functional, organism-based;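 note: potency for reduction of bacterial viability or growth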
[26] = target: Voltage-gated N-type calcium channel alpha-1B subunit/Amyloid beta A4 precursor protein-binding family A member 1 (Homo sapiens, UniProt Q00975+Q02410); assay: disruptors of Mint-PDZ/N-type channel peptide interaction – biochemical, HTRF, set 2, SAR follow-up (AID 434980); assay type: functional

Sequence of Transitional endoplasmic reticulum ATPase (Homo sapiens, UniProt P55072) (P55072 whole entry): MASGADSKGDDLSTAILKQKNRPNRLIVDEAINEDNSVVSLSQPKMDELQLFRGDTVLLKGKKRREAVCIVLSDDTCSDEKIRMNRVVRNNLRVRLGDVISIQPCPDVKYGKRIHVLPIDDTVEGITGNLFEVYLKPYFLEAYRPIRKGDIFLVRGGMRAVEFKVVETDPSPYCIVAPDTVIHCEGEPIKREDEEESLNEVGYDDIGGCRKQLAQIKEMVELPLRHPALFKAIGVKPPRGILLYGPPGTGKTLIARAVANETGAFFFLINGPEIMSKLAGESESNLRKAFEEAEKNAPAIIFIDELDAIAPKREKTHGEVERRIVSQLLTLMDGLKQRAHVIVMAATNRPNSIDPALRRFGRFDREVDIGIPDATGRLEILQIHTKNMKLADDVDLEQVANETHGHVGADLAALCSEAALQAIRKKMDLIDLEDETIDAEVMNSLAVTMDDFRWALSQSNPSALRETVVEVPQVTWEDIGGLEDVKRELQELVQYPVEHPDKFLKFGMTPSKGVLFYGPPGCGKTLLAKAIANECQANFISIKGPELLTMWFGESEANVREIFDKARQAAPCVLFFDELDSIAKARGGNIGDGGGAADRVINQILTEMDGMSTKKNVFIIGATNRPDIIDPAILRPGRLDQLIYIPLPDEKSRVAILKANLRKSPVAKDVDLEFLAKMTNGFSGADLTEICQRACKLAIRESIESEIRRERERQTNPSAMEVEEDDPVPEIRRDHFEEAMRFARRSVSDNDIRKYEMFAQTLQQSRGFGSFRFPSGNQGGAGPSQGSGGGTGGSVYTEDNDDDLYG
Sequence of Trypsin (P00761 whole entry): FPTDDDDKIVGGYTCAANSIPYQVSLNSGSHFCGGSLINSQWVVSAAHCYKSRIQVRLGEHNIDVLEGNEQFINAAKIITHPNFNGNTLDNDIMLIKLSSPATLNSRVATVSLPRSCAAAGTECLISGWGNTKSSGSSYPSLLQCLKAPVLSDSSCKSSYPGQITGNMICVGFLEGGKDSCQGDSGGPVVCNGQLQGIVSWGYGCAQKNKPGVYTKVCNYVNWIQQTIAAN
Sequence of Guanyl-specific ribonuclease T1 (P00651 whole entry): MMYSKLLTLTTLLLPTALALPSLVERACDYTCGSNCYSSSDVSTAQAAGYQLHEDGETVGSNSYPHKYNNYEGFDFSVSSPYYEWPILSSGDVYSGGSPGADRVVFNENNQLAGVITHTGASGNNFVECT
Sequence of Transitional endoplasmic reticulum ATPase (Homo sapiens, UniProt P55072, C522A) (P55072 2-806 C522A limits assumed): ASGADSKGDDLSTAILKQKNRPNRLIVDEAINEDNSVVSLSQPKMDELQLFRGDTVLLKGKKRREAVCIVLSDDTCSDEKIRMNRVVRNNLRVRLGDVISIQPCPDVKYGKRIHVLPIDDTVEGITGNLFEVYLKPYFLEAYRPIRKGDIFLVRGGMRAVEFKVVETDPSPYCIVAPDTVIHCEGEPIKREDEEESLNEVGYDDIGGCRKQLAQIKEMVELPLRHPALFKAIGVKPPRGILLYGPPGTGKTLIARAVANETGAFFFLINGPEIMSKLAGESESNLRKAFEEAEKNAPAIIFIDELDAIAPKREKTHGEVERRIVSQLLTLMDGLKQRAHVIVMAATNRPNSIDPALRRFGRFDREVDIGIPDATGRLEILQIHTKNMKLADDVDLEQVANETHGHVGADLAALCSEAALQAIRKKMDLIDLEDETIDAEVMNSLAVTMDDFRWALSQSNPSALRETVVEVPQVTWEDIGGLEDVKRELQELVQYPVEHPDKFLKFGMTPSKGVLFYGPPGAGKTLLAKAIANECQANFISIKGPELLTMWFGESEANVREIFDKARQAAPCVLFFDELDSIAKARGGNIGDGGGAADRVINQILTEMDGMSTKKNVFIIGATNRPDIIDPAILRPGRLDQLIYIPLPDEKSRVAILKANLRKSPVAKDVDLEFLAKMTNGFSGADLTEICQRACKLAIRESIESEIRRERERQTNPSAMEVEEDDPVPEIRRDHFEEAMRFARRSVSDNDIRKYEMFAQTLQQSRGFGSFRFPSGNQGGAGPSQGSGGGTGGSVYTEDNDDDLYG
Sequence of Cyclin-dependent kinase 5/CDK5 activator 1 (Q00535 whole entry): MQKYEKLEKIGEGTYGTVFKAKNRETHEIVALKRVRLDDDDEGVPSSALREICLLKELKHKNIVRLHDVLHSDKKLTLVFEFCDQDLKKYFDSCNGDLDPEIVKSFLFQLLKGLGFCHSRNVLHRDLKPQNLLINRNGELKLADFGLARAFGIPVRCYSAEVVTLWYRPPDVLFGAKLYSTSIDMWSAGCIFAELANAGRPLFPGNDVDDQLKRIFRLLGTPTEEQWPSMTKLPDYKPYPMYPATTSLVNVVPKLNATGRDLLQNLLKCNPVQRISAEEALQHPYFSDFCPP
Sequence of Cyclin-dependent kinase 5/CDK5 activator 1 (Q15078 whole entry, further chain): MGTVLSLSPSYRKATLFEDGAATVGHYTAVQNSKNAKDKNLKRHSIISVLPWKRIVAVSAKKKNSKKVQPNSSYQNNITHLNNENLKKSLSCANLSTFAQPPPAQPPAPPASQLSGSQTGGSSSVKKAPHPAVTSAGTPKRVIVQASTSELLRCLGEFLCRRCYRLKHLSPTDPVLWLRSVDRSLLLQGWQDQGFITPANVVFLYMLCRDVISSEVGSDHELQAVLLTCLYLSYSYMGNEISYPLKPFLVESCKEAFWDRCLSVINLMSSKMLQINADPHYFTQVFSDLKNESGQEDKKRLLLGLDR
Sequence of Bcl-2-like protein 10 (Q9HD36 whole entry): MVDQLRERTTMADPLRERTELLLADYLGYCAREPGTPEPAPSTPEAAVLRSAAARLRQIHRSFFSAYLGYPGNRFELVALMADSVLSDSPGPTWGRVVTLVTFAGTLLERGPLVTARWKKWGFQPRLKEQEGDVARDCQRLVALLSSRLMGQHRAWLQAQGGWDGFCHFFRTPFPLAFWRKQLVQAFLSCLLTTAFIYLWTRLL
Sequence of G-protein coupled receptor 35 (Q9HC97 whole entry): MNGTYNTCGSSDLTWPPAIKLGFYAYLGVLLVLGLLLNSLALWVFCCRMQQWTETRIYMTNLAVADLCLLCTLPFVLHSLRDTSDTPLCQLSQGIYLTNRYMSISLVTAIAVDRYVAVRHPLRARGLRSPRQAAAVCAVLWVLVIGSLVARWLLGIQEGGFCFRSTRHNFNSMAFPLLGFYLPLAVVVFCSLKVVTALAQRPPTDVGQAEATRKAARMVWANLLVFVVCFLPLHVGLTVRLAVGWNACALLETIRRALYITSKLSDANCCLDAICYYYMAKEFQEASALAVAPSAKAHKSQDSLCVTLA
Sequence of Likely tRNA 2'-phosphotransferase (Q5A7N4 whole entry): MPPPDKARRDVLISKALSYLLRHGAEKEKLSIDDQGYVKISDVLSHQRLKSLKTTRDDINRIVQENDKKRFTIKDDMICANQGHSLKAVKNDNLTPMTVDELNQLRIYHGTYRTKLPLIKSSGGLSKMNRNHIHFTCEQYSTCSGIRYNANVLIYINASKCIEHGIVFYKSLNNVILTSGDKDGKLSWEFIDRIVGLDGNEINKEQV
Sequence of Lysosomal acid glucosylceramidase (P04062 whole entry): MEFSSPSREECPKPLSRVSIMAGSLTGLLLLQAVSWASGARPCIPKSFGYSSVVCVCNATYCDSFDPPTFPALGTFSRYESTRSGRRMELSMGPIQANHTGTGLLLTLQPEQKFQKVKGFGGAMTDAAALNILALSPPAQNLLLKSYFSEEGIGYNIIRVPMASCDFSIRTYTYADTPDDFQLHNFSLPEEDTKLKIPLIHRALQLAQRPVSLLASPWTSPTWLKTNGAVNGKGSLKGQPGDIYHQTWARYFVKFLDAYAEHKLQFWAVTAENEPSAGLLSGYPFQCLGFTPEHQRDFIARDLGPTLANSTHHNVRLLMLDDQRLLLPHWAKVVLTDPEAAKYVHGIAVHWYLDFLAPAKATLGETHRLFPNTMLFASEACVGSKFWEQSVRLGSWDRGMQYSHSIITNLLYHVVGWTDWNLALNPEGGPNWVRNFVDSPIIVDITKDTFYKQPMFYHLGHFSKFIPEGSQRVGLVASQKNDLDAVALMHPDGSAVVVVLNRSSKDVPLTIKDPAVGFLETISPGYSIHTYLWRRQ

Cc1ccc(OCCn2cccc2/C=C2/C(=O)NC(=O)N(Cc3ccco3)C2=O)cc1
IC50 [1]: > 55.7 µM (not active)
IC50 [2]: > 55.7 µM (not active)

O=C(N/N=C/c1ccc(NC(=O)C(F)(F)F)cc1)C1CCCC1
AC50 [3]: 22.3 µM (active)

c1ccc(CNc2nc(NCc3ccccc3)c3ccccc3n2)cc1
EC50 [4]: > 150 µM (inconclusive)
IC50 [5]: > 50 µM (not active)
EC50 [6]: > 38 µM (not active)
IC50 [7]: > 50 µM (not active)
AC50 [8]: 13.6 µM (active)
IC50 [9]: 12.4 µM (active)
IC50 [10]: 19.6 µM (active)
AC50 [11]: 39.5 µM (active)
IC50 [12]: 11 µM (active)
AC50 [13]: 6.13 µM (active)
EC50 [14]: 7.83 µM (active)
AC50 [15]: 7.6 µM (active)
AC50 [16]: 9.69 µM (active)

COc1ccc(NC(=O)c2cc(CN3C(=O)c4ccccc4C3=O)ccc2OC)cn1
IC50 [17]: > 25 µM (inactive)
EC50 [18]: > 195 µM (not active)

COc1ccc(OC)c(Nc2nc(-c3sc(N)nc3C)cs2)c1
EC50 [19]: > 50 µM (not active)

C=CCNC(=O)c1[nH]nc2c1CC(C(C)(C)CC)CC2 (stereo unspecified)
AC50 [20]: 3.18 µM (active)

CCOc1ccc(/C=N/NC(=O)Cc2csc(Nc3cccc(C(F)(F)F)c3)n2)cc1
CC50 [21]: 12.2 µM (active)
IC50 [22]: 2.1 µM (active)
EC50 [23]: 8.02 µM (active)
EC50 [24]: 20.1 µM (active)
EC50 [25]: 20.2 µM (active)

O=C(c1cc(-c2ccco2)nc2ccccc12)N1CCc2cccnc21
IC50 [26]: > 56.8 µM (inactive)
